According to patent US6906098B2, “Mixed steroidal 1,2,4,5-tetraoxane compounds and methods of making and using thereof” (priority 2002, dated 2005):
Values after ≈ are worked out from the molar mass of the structure shown. Values joined by “and” are separate entries in the source; they are usually repeats but may differ in a detail not shown here. Equal entries are not always repeated. Where two headings read alike, the source gives them in different places.

Key:
[1] = system: Plasmodium falciparum chloroquine-susceptible strain D6; assay: In vitro antimalarial drug susceptibility assay (radiolabeled hypoxanthine incorporation), strain D6; format: cell-based; details: for IC50: Plasmodium falciparum, D6, 66 h, read-out: Strain D6 IC50, growth inhibition, chloroquine-susceptible strain D6, 66 h incubation; for Strain D6 IC50: growth inhibition, chloroquine-susceptible strain D6, 66 h incubation
[2] = system: D6 and W2 P. falciparum clones; format: cell-based, Plasmodium falciparum; details: IC50 (W2)/IC50 (D6) ratio
[3] = system: Mycobacterium tuberculosis H37Rv (ATCC 27294); assay: Primary screen, Microplate Alamar Blue Assay (MABA), percent inhibition; format: cell-based; details: primary screening at 6.25 μg/ml; for inhibition at 6.25 µg/mL: Mycobacterium tuberculosis
Experimental: (§1) The activity of the compounds of the present invention against Mycobacterium tuberculosis was determined using the following assays conducted by the National Institute of Allergy and Infectious Diseases (NIAID) supports a TB drug acquisition and screening program, the TAACF.
To determine the percent inhibition the following assay was conducted. Primary screening was conducted at 6.25 μg/ml (or the molar equivalent of highest molecular weight compound in a given series of congeners) against Mycobacterium tuberculosis H37Rv (ATCC 27294) in BACTEC 12B medium using the Microplate Alamar Blue Assay (MABA). See Collins, L. and S. G. Franzblau. 1997. Microplate alamar blue assay versus BACTEC 460 system for high-throughput screening of compounds against Mycobacterium tuberculosis and Mycobacterium avium. Antimicrob Agents Chemother 41:1004-9, which is herein incorporated by reference.
Minimum compound requirements: 1.0 mg.

M. tuberculosis H37Rv = assay: Minimum inhibitory concentration (MIC) in the MABA; format: cell-based, Mycobacterium tuberculosis
Experimental: as §1
2. Minimum Inhibitory Concentration (MIC)
The MIC is defined as the lowest concentration effecting a reduction in fluorescence of 90% relative to controls. Minimum compound requirements: 1.0 mg.

[4] = system: Plasmodium falciparum chloroquine-resistant strain W2; assay: microbe, parasite or virus in culture; format: cell-based; details: for IC50: Plasmodium falciparum, W2, 66 h, read-out: Strain W2 IC50, growth inhibition, chloroquine-resistant strain W2, 66 h incubation; for Strain W2 IC50: growth inhibition, chloroquine-resistant strain W2, 66 h incubation
[5] = Table 5, Alamar assay, read-out: % Inhib
[6] = Mycobacterium tuberculosis, H37RV, Table 5, Alamar assay, M. tuberculosis H37Rv, read-out: MIC
[7] = Table 5, Alamar assay, M. tuberculosis H37Rv

Row | Compound | IC50 [1] [µg/mL] | Resistance Index [2] | inhibition at 6.25 µg/mL [3, 5] [%] | MIC (M. tuberculosis H37Rv; [6]) [µg/mL] | IC50 [4] [µg/mL] | Strain D6 IC50 [1] [µg/mL] | % Inhib ([3]; Table 5, Alamar assay) [%] | MIC (M. tuberculosis H37Rv; [7]) [µg/mL] | Strain W2 IC50 [4] [µg/mL] | Inhibition (%) ([3]; Table 3, H37Rv) | MIC (M. tuberculosis H37Rv; Table 3, H37Rv) [µg/mL] | inhibition at 6.25 µg/mL ([3]; Table 3, H37Rv, read-out: Inhibition (%)) [%] | MIC (M. tuberculosis H37Rv; Mycobacterium tuberculosis, H37RV, Table 3, H37Rv, read-out: MIC)
1 | COC(=O)CCC(C)[C@H]1CCC2C3C(C[C@H](OC(C)=O)[C@@]21C)[C@@]1(C)CCC2(C[C@H]1C[C@H]3OC(C)=O)OOC1(CCCC1)OO2 (stereo partly drawn) [8a/1B04, Methyl 7α,12α-Diacetoxy-5β-cholan-24-oate-3-spiro-6′-(1′,2′,4′,5′-tetraoxacyclohexane)-3′-spirocyclopentane] | 0.0243 (≈ 0.0391 µM) | 0.71 | 0 | > 6.25 | 0.0172 (≈ 0.0277 µM) |  |  |  |  |  |  |  | 
2 | CC(=O)O[C@H]1CC2C(C3CC[C@H](C(C)CCC(=O)O)[C@]31C)[C@H](OC(C)=O)C[C@@H]1CC3(CC[C@]21C)OOC1(CCC(C)CC1)OO3 (some centres unmarked) [9h/1C18] |  | 0.57 |  |  |  | 0.01974 | 34 | >6.25 | 0.01126 |  |  |  | 
3 | CC(=O)O[C@H]1CC2C(C3CC[C@H](C(C)CCC(=O)O)[C@]31C)[C@H](OC(C)=O)C[C@@H]1CC3(CC[C@]21C)OOC1(CCCCC1)OO3 (stereo partly drawn) [9b/1C15, 70α,12α-Diacetoxy-5β-cholan-24-oic acid-3-spiro-6′-(1′,2′,4′,5′-tetraoxacyclohexane)-3′-spirocyclohexane] | 0.019 (≈ 0.0306 µM) | 0.63 | 33 | > 6.25 | 0.0119 (≈ 0.0192 µM) |  |  |  |  |  |  |  | 
4 | CCC1CCC2(CC1)OOC1(CC[C@]3(C)C4C[C@H](OC(C)=O)[C@@]5(C)C(CC[C@@H]5C(C)CCC(=O)OC)C4[C@H](OC(C)=O)C[C@@H]3C1)OO2 (single isomer, unassigned) [8j/1B13b, Methyl 7α,12α-diacetoxy-5β-cholan-24-oate-3-spiro-6′-(1′,2′,4′,5′-tetraoxacyclohexane)-3′-spiro-1″-((4″R or S)- and (4″S or R)-ethyl)cyclohexane] |  | 1.60 |  |  |  | 0.01173 | 65 | >6.25 | 0.01876 |  |  |  | 
5 | CC(=O)O[C@H]1CC2C(C3CC[C@H](C(C)CCC(=O)O)[C@]31C)[C@H](OC(C)=O)C[C@@H]1CC3(CC[C@]21C)OOC1(CCC(c2ccccc2)CC1)OO3 (single isomer, unassigned) [Compound 1C49, 7α,12α-Diacetoxy-5β-cholan-24-oic acid-3-spiro-6′-(1′,2′,4′,5′-tetraoxacyclohexane)-3′-spiro-1″-((4″S or R)-phenyl)cyclohexane] |  | 0.81 |  |  |  | 0.05424 | 89 | >6.25 | 0.04385 | 89 | >6.25 |  | 
6 | COC(=O)CCC(C)[C@H]1CCC2C3C(C[C@H](OC(C)=O)[C@@]21C)[C@@]1(C)CCC2(C[C@H]1C[C@H]3OC(C)=O)OOC1(CC(C)CCC1C(C)C)OO2 (stereo partly drawn) [8f/1B10, Methyl 7α,12α-diacetoxy-5β-cholan-24-oate-3-spiro-6′-(1′,2′,4′,5′-tetraoxacyclohexane)-3′-spiro-1″-(−)-menthane] | 0.107 (≈ 0.154 µM) | 0.47 | 0 | > 6.25 | 0.0506 (≈ 0.0732 µM) |  |  |  |  |  |  |  | 
7 | COC(=O)CCC(C)[C@H]1CCC2C3C(C[C@H](OC(C)=O)[C@@]21C)[C@@]1(C)CCC2(C[C@H]1C[C@H]3OC(C)=O)OOC1(CCC(c3ccccc3)CC1)OO2 (single isomer, unassigned) [Compound 1B14b, Methyl 7α,12α-diacetoxy-5β-cholan-24-oate-3-spiro-6′-(1′,2′,4′,5′-tetraoxacyclohexane)-3′-spiro-1″-((4″R or S)- and (4″S or R)-phenyl)cyclohexane] |  | 0.79 |  |  |  | 0.03176 | 46 | >6.25 | 0.025 | 46 | >6.25 |  | 
8 | CCNC(=O)CCC(C)[C@H]1CCC2C3C(C[C@H](OC(C)=O)[C@@]21C)[C@@]1(C)CCC2(C[C@H]1C[C@H]3OC(C)=O)OOC1(CCC(C)CC1)OO2 (stereo partly drawn) [23/1C32, N-Ethyl-7α,12α-diacetoxy-5β-cholan-24-amide-3-spiro-6′-(1′,2′,4′,5′-tetraoxacyclohexane)-3′-spiro-1″-((4″S)-methyl)cyclohexane] |  | 0.64 |  |  |  | 0.01032 | 21 | >6.25 | 0.00657 |  |  |  | 
9 | CC(=O)O[C@H]1CC2C(C3CC[C@H](C(C)CCC(=O)O)[C@]31C)[C@H](OC(C)=O)C[C@@H]1CC3(CC[C@]21C)OOC1(CCCCC1C)OO3 (stereo partly drawn) [9d/1C16, 7α,12α-Diacetoxy-5β-cholan-24-oic acid-3-spiro-6′-(1′,2′,4′,5′-tetraoxacyclohexane)-3′-spiro-1″-(2″-methyl)cyclohexane] | 0.0429 (≈ 0.0676 µM) | 0.56 | 0 | > 6.25 | 0.0238 (≈ 0.0375 µM) |  |  |  |  |  |  |  | 
10 | CCC1CCC2(CC1)OOC1(CC[C@]3(C)C4C[C@H](OC(C)=O)[C@@]5(C)C(CC[C@@H]5C(C)CCC(N)=O)C4[C@H](OC(C)=O)C[C@@H]3C1)OO2 (single isomer, unassigned) [29/1C40, 7α,12α-Diacetoxy-5β-cholan-24-amide-3-spiro-6′-(1′,2′,4′,5′-tetraoxacyclohexane)-3′-spiro-1″-((4″S or R)-ethyl)cyclohexane] |  | 0.40 |  |  |  | 0.02012 | 100 | 3.13 (≈ 4.83 µM) | 0.00811 |  |  |  | 
11 | COC(=O)CCC(C)[C@H]1CCC2C3C(C[C@H](OC(C)=O)[C@@]21C)[C@@]1(C)CCC2(C[C@H]1C[C@H]3OC(C)=O)OOC1(CCC(C)CC1)OO2 (mixture of isomers) [8h/1B08b, Methyl 7α,12α-diacetoxy-5β-cholan-24-oate-3-spiro-6′-(1′,2′,4′,5′-tetraoxacyclohexane)-3′-spiro-1″-((4″R)- and (4″S)-methyl)cyclohexane] |  | 0.53 |  |  |  | 0.01599 | 38 | >6.25 | 0.00854 |  |  |  | 
12 | CCC1CCC2(CC1)OOC1(CC[C@]3(C)C4C[C@H](OC(C)=O)[C@@]5(C)C(CC[C@@H]5C(C)CCC(=O)O)C4[C@H](OC(C)=O)C[C@@H]3C1)OO2 (single isomer, unassigned) [9i/1C34, 7α,12α-Diacetoxy-5β-cholan-24-oic acid-3-spiro-6′-(1′,2′,4′,5′-tetraoxacyclohexane)-3′-spiro-1″-((4″R or S)-ethyl)cyclohexane] | 0.00374 (≈ 0.00576 µM) | 1.26 | 80 | > 6.25 | 0.00471 (≈ 0.00726 µM) |  |  |  |  |  |  |  | 
13 | COC(=O)CCC(C)[C@H]1CCC2C3C(C[C@H](OC(C)=O)[C@@]21C)[C@@]1(C)CCC2(C[C@H]1C[C@H]3OC(C)=O)OOC1(CCC(C)CC1)OO2 (mixture of isomers) [8g/1B08a, Methyl 7α,12α-diacetoxy-5β-cholan-24-oate-3-spiro-6′-(1′,2′,4′,5′-tetraoxacyclohexane)-3′-spiro-1″-((4″R)- and (4″S)-methyl)cyclohexane] |  | 0.50 | 29 | > 6.25 |  | 0.00648 |  |  | 0.00327 |  |  | 29 | > 6.25 µg/mL and > 9.63 µM
